Source: patent publication US10143695B2 (priority 2016, dated 2018)
pIC50: −log10 of the molar value.

Assays:
[1] = tested on: BT474 cells (HER2 expressing cells); assay: CellTiter-Glo cell viability assay, BT474; format: cell-based; settings: PBD compounds, 72 h incubation
Protocol: (§1) PBD compounds and conjugates thereof were evaluated for their antiproliferation properties in tumor cell lines in vitro using CellTiter-Glo® (Promega Corp). Cells were plated in black walled 96-well plate and allowed to adhere overnight at 37° C. in a humidified atmosphere of 5% CO2. BT474, SKBR3, NCI-N87 cells (HER2 expressing cells), JIMT1 cells (HER2 medium expression level cells) and MCF7 cells (HER2 low expressing levels cells) and were plated at a density of 5,000 cells per well. The next day the medium was replaced with 50 μL fresh medium and 50 μL of 2× stocks of PBD compounds or antibody-PBD conjugate were added to appropriate wells, mixed and incubated for 72 h. CellTiter-Glo® reagent was added to the wells at room temperature and the luminescent signal was measured after 10 min using a SpectraMax M5 plate reader (Molecular Devices). Dose response curves were generated using SoftMax Pro software. IC50 values were determined from four-parameter curve fitting.

[2] = tested on: MCF7 cells (HER2 low expressing levels cells); assay: CellTiter-Glo cell viability assay, MCF7; format: cell-based; settings: PBD compounds, 72 h incubation
Protocol: as §1

[3] = tested on: NCI-N87 cells (HER2 expressing cells); assay: CellTiter-Glo cell viability assay, NCI-N87; format: cell-based; settings: PBD compounds, 72 h incubation
Protocol: as §1

[4] = tested on: JIMT1 cells (HER2 medium expression level cells); assay: CellTiter-Glo cell viability assay, JIMT1; format: cell-based; settings: PBD compounds, 72 h incubation
Protocol: as §1

[5] = tested on: SKBR3 cells (HER2 expressing cells); assay: CellTiter-Glo cell viability assay, SKBR3; format: cell-based; settings: PBD compounds, 72 h incubation
Protocol: as §1

[6] = Phase I clinical evaluation; cited from earlier work

SMILES	pIC50 ([1]; Homo sapiens, BT-474)	pIC50 ([2]; Homo sapiens, MCF7)	pIC50 ([3]; Homo sapiens, NCI-N87)	pIC50 ([4]; Homo sapiens, JIMT-1)	pIC50 ([5]; Homo sapiens, SK-BR-3)	adverse effects noted [6]	maximum tolerated dose [6]	pIC50 [1]	pIC50 [2]	pIC50 [3]	pIC50 [4]	pIC50 [5]
C=C1C[C@H]2C=Nc3cc(OCCCC(=O)Nc4cn(C)c(C(=O)Nc5cc(C(=O)Nc6cc(C(=O)NCc7ccc(N)cc7)n(C)c6)n(C)c5)n4)c(OC)cc3C(=O)N2C1 [Compound 4A, (S,Z)-N-(5-(5-(4-aminobenzylcarbamoyl)-1-methyl-1H-pyrrol-3-ylcarbamoyl)-1-methyl-1H-pyrrol-3-yl)-4-(4-(7-methoxy-2-methylene-5-oxo-2,3,5,11a-tetrahydro-1H-benzo[e]pyrrolo[1,2-a][1,4]diazepin-8-yloxy)butanamido)-1-methyl-1H-imidazole-2-carboxamide]	7.57	6.00	7.62	7.94	8.03	–	–	–	–	–	–	–
C=C1CC2C=Nc3cc(OCCCC(=O)Nc4cn(C)c(C(=O)Nc5cc(C(=O)Nc6cc(C(=O)NCCCO)n(C)c6)n(C)c5)n4)c(OC)cc3C(=O)N2C1 (stereo in doubt) [Compound 56, (S,Z)-N-(5-(5-(3-hydroxypropylcarbamoyl)-1-methyl-1H-pyrrol-3-ylcarbamoyl)-1-methyl-1H-pyrrol-3-yl)-4-(4-(7-methoxy-2-methylene-5-oxo-2,3,5,11a-tetrahydro-1H-benzo[e]pyrrolo[1,2-a][1,4]diazepin-8-yloxy)butanamido)-1-methyl-1H-imidazole-2-carboxamide]	7.63	7.26	7.87	8.05	8.10	–	–	–	–	–	–	–
C=C1C[C@H]2C=Nc3cc(OCCCOc4cc5c(cc4OC)C(=O)N4CC(=C)C[C@H]4C=N5)c(OC)cc3C(=O)N2C1 [SJG-136]	–	–	–	–	–	vascular leak syndrome, peripheral edema, liver toxicity and fatigue	45 μg/m^2	–	–	–	–	–
C=C1C[C@H]2C=Nc3cc(OCCCC(=O)Nc4cn(C)c(C(=O)Nc5cc(C(=O)Nc6cc(C(=O)n7ccc8cc(C(=O)OC)cnc87)n(C)c6)n(C)c5)n4)c(OC)cc3C(=O)N2C1 [Compound 85, (S,Z)-methyl 1-(4-(4-(4-(4-(7-methoxy-2-methylene-5-oxo-2,3,5,11a-tetrahydro-1H-benzo[e]pyrrolo[1,2-a][1,4]diazepin-8-yloxy)butanamido)-1-methyl-1H-imidazole-2-carboxamido)-1-methyl-1H-pyrrole-2-carboxamido)-1-methyl-1H-pyrrole-2-carbonyl)-1H-pyrrolo[2,3-b]pyridine-5-carboxylate]	8.20	8.10	9.01	7.85	9.24	–	–	–	–	–	–	–
C=C1C[C@@H]2C=Nc3cc(OCCCC(=O)Nc4cc(C(=O)Nc5cc(C(=O)Nc6cc(C(=O)NCCCO)n(C)c6)n(C)c5)n(C)c4)c(OC)cc3C(=O)N2C1 [Compound 55, (R,Z)-N-(3-hydroxypropyl)-4-(4-(4-(4-(7-methoxy-2-methylene-5-oxo-2,3,5,11a-tetrahydro-1H-benzo[e]pyrrolo[1,2-a][1,4]diazepin-8-yloxy)butanamido)-1-methyl-1H-pyrrole-2-carboxamido)-1-methyl-1H-pyrrole-2-carboxamido)-1-methyl-1H-pyrrole-2-carboxamide]	8.12	7.33	8.30	8.70	8.60	–	–	–	–	–	–	–
C=C1C[C@H]2C=Nc3cc(OCCCC(=O)Nc4cn(C)c(C(=O)Nc5cc(C(=O)Nc6cnc7[nH]ccc7c6)n(C)c5)n4)c(OC)cc3C(=O)N2C1 [Compound 84, (S,Z)-N-(5-(1H-pyrrolo[2,3-b]pyridin-5-ylcarbamoyl)-1-methyl-1H-pyrrol-3-yl)-4-(4-(7-methoxy-2-methylene-5-oxo-2,3,5,11a-tetrahydro-1H-benzo[e]pyrrolo[1,2-a][1,4]diazepin-8-yloxy)butanamido)-1-methyl-1H-imidazole-2-carboxamide]	8.27	8.42	8.82	8.44	9.18	–	–	–	–	–	–	–
C=C1C[C@H]2C=Nc3cc(OCCCC(=O)Nc4cn(C)c(C(=O)Nc5cc(C(=O)Nc6cc(C(=O)n7ccc8cc(N)ccc87)n(C)c6)n(C)c5)n4)c(OC)cc3C(=O)N2C1 [Compound 8, (S,Z)-N-(5-((5-(5-amino-1H-indole-1-carbonyl)-1-methyl-1H-pyrrol-3-yl)carbamoyl)-1-methyl-1H-pyrrol-3-yl)-4-(4-((7-methoxy-2-methylene-5-oxo-2,3,5,11a-tetrahydro-1H-benzo[e]pyrrolo[1,2-a][1,4]diazepin-8-yl)oxy)butanamido)-1-methyl-1H-imidazole-2-carboxamide]	9.08	8.40	9.37	8.66	9.82	–	–	–	–	–	–	–
C=C1C[C@H]2C=Nc3cc(OCCCC(=O)Nc4cn(C)c(C(=O)Nc5cc(C(=O)Nc6cc(C(=O)O)n(C)c6)n(C)c5)n4)c(OC)cc3C(=O)N2C1 [Compound 51, (S,Z)-4-(4-(4-(4-(7-methoxy-2-methylene-5-oxo-2,3,5,11a-tetrahydro-1H-benzo[e]pyrrolo[1,2-a][1,4]diazepin-8-yloxy)butanamido)-1-methyl-1H-imidazole-2-carboxamido)-1-methyl-1H-pyrrole-2-carboxamido)-1-methyl-1H-pyrrole-2-carboxylic acid]	6.52	6.52	6.52	6.52	6.59	–	–	–	–	–	–	–
C=C1C[C@H]2C=Nc3cc(OCCCC(=O)Nc4cn(C)c(C(=O)Nc5cc(C(=O)Nc6cc(C(=O)n7ccc8cc(C(=O)OC)ccc87)n(C)c6)n(C)c5)n4)c(OC)cc3C(=O)N2C1 [Compound 8A, (S,Z)-methyl 1-(4-(4-(4-(4-(7-methoxy-2-methylene-5-oxo-2,3,5,11a-tetrahydro-1H-benzo[e]pyrrolo[1,2-a][1,4]diazepin-8-yloxy)butanamido)-1-methyl-1H-imidazole-2-carboxamido)-1-methyl-1H-pyrrole-2-carboxamido)-1-methyl-1H-pyrrole-2-carbonyl)-1H-indole-5-carboxylate]	9.08	8.43	8.54	9.26	9.85	–	–	–	–	–	–	–
C=C1C[C@H]2C=Nc3cc(OCCCC(=O)Nc4cn(C)c(C(=O)Nc5cc(C(=O)Nc6cc(C(=O)n7ccc8c(N)cccc87)n(C)c6)n(C)c5)n4)c(OC)cc3C(=O)N2C1 [Compound 11A, (S,Z)-N-(5-(5-(4-amino-1H-indole-1-carbonyl)-1-methyl-1H-pyrrol-3-ylcarbamoyl)-1-methyl-1H-pyrrol-3-yl)-4-(4-(7-methoxy-2-methylene-5-oxo-2,3,5,11a-tetrahydro-1H-benzo[e]pyrrolo[1,2-a][1,4]diazepin-8-yloxy)butanamido)-1-methyl-1H-imidazole-2-carboxamide]	8.40	7.83	8.82	7.95	9.17	–	–	–	–	–	–	–
C=C1C[C@H]2C=Nc3cc(OCCCC(=O)Nc4cn(C)c(C(=O)Nc5cc(C(=O)Nc6cc(C(=O)n7ccc8cc(CN)ccc87)n(C)c6)n(C)c5)n4)c(OC)cc3C(=O)N2C1 [Compound 83, (S,Z)-N-(5-(5-(5-(aminomethyl)-1H-indole-1-carbonyl)-1-methyl-1H-pyrrol-3-ylcarbamoyl)-1-methyl-1H-pyrrol-3-yl)-4-(4-(7-methoxy-2-methylene-5-oxo-2,3,5,11a-tetrahydro-1H-benzo[e]pyrrolo[1,2-a][1,4]diazepin-8-yloxy)butanamido)-1-methyl-1H-imidazole-2-carboxamide]	8.60	8.62	9.09	8.92	9.74	–	–	–	–	–	–	–
C=C1C[C@H]2C=Nc3cc(OCCCC(=O)Nc4cn(C)c(C(=O)Nc5cc(C(=O)Nc6cc(C(=O)Nc7ccc8[nH]ccc8c7)n(C)c6)n(C)c5)n4)c(OC)cc3C(=O)N2C1 [Compound 82, (S,Z)-N-(5-(5-(1H-indol-5-ylcarbamoyl)-1-methyl-1H-pyrrol-3-ylcarbamoyl)-1-methyl-1H-pyrrol-3-yl)-4-(4-(7-methoxy-2-methylene-5-oxo-2,3,5,11a-tetrahydro-1H-benzo[e]pyrrolo[1,2-a][1,4]diazepin-8-yloxy)butanamido)-1-methyl-1H-imidazole-2-carboxamide]	–	–	–	–	–	–	–	7.49	7.57	8.10	7.97	8.44
